Experimental findings from patent US9615577B2, “Herbicidally active cyclic dione compounds, or derivatives therefor, substituted by a phenyl which has an alkynyl-containing substituent” (Syngenta Limited, priority 2012, dated 2017) are described below.

Common to all, as to assay type: in vivo
Assay [1] relates to Setaria faberi (SETFA). Nature of the assay: Test 1B glasshouse assay for herbicidal activity, pre-emergence. The note with it: 480 h, 500 g/ha, 20 DAA, read-out: percentage phytotoxicity SETFA. On the procedure:
(§1) Seeds of a variety of monocotyledonous and dicotyledonous test plants are sown in standard soil in pots. The plants are cultivated for one day (for pre-emergence) or for about 12 days (range=10-13 days) (for post-emergence) under controlled conditions in a glasshouse (warm climate species at 24/18° C., cool climate species at 20/16° C., both at day/night; 16 hours light; 65% humidity).
(§2) An “instant formulation”, known as the “IF50”, containing 50 g/liter (i.e. 5% w/v) of the “technical” (i.e. unformulated) active ingredient is prepared by dissolving the active ingredient in a mixture of organic solvents and emulsifier, details of which are provided in the Table below. This IF50 is then mixed with a small, variable amount of acetone to aid dissolution, before addition of a 0.2% v/v aqueous solution of the adjuvant X-77 (which is a mixture of alkyl aryl polyoxyethylene glycols and free fatty acids in isopropanol, CAS Registry number 11097-66-8), as the aqueous diluent, to form an aqueous spray solution which contains a predetermined concentration of the active ingredient (which varies depending on the application rate of the active ingredient to the plants) and 0.2% v/v of the adjuvant X-77. This aqueous spray solution is then sprayed onto the plants, after one day's cultivation (for pre-emergence) or after about 12 days' cultivation (for post-emergence).
(§3) The test plants are then grown on, in a glasshouse (greenhouse) under controlled conditions (at either 24/18° C. or 20/16° C. (day/night) as mentioned above; 16 hours light; 65% humidity) and are watered twice daily. Either 15 days after application of the herbicide (15 DAA) (for post-emergence), or 20 days after application of the herbicide (20 DAA) (for pre-emergence), the test plants are evaluated visually, and an assessed percentage phytotoxicity score is given for each herbicidal application on each plant species (where 100%=total damage to plant; 0%=no damage to plant).
(§4) Warm climate (“warm season”) grassy monocotyledonous weeds: Setaria faberi (SETFA), SORVU (Sorghum bicolor (L.) Moench ssp. Bicolor, or Sorghum vulgare Pers.), Digitaria sanguinalis (DIGSA), Echinochloa crus-galli (ECHCG), and Brachiaria plantaginea (BRAPL).

Assay [2] relates to SORVU (Sorghum bicolor (L.) Moench ssp. Bicolor, or Sorghum vulgare Pers.). The assay is described as above. The note with it: 480 h, 500 g/ha, 20 DAA, read-out: percentage phytotoxicity SORVU. On the procedure:
as §1, §2, §3, §4

For assay [3], the system named is Echinochloa crus-galli (ECHCG). Described as above. The note with it: 480 h, 500 g/ha, 20 DAA, read-out: percentage phytotoxicity ECHCG. Here is the method: as §1, §2, §3, §4
Assay [4] deals with Glycine max (GLXMA, soybean). Put plainly: Test 1B glasshouse assay for herbicidal activity, post-emergence. The note with it: 360 h; for plant injury at 60 g/ha: 60 g/ha application rate. Here is the method: as §1, §2, §3
Warm climate crop plants: Glycine max (GLXMA, soybean).

Assay [5] relates to Triticum aestivum (TRZAW, winter wheat). Put plainly: Test 1B glasshouse assay for herbicidal activity, pre-emergence. The note with it: 480 h, 500 g/ha, 20 DAA, read-out: percentage phytotoxicity TRZAW. On the procedure:
as §1, §2, §3
(§5) Cool climate crop plants: Triticum aestivum (TRZAW, winter wheat), Brassica napus (BRSNN, rape, also called oilseed rape or rapeseed), Beta vulgaris (BEAVA, sugar beet).

Assay [6] has as its system Brassica napus (BRSNN, rape). The assay is described as above. The note with it: 480 h, 500 g/ha, 20 DAA, read-out: percentage phytotoxicity BRSNN. Here is the method: as §1, §2, §3, §5
For assay [7], the system named is Beta vulgaris (BEAVA, sugar beet). Described as above. The note with it: 480 h, 500 g/ha, 20 DAA, read-out: percentage phytotoxicity BEAVA. Here is the method:
as §1, §2, §3, §5

Assay [8] relates to Setaria faberi (SETFA). Nature of the assay: Test 1A glasshouse assay for herbicidal activity, pre-emergence. The note with it: 312 h, 250 g/ha, evaluated after 13 days, read-out: percentage phytotoxicity SETFA. A digest of the protocol:
(§6)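 Phytotoxicity was rated visually 13 days post-spray, 0 meaning no damage and 100 total damage. Spray solution: acetone/water 50:50 with 0.5% Tween 20, applied one day post-sowing for pre-emergence or after 8 days for post-emergence; plants kept at 24/16 °C, 14 h light, 65% humidity.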

Assay [9] concerns Amaranthus retroflexus (AMARE). The description is as above. The note with it: 312 h, 250 g/ha, evaluated after 13 days, read-out: percentage phytotoxicity AMARE. The essentials: as §6
Assay [10] deals with Echinochloa crus-galli (ECHCG). The assay is described as above. The note with it: 312 h, 250 g/ha, evaluated after 13 days, read-out: percentage phytotoxicity ECHCG. The essentials:
as §6

Assay [11] concerns Alopecurus myosuroides (ALOMY). Described as above. The note with it: 312 h, 250 g/ha, evaluated after 13 days, read-out: percentage phytotoxicity ALOMY. The essentials: as §6
Assay [12] concerns Setaria faberi (SETFA). Put plainly: Test 1B glasshouse assay for herbicidal activity, post-emergence. The note with it: 360 h; for pest or weed control at 60 g/ha: 60 g/ha application rate. Here is the method: as §1, §2, §3, §4
Assay [13] has as its system SORVU (Sorghum bicolor (L.) Moench ssp. Bicolor, or Sorghum vulgare Pers.). The description is as above. The note with it: 360 h; for pest or weed control at 60 g/ha: 60 g/ha application rate. On the procedure: as §1, §2, §3, §4
Assay [14] relates to Digitaria sanguinalis (DIGSA). The assay is described as above. The note with it: 360 h; for pest or weed control at 60 g/ha: 60 g/ha application rate. Here is the method:
as §1, §2, §3, §4

Assay [15] concerns Setaria faberi (SETFA). Put plainly: Test 1A glasshouse assay for herbicidal activity, post-emergence. The note with it: 312 h, evaluated after 13 days, read-out: percentage phytotoxicity SETFA. A digest of the protocol:
as §6

For assay [16], the system named is Amaranthus retroflexus (AMARE). Described as above. The note with it: 312 h, evaluated after 13 days, read-out: percentage phytotoxicity AMARE. A digest of the protocol: as §6
Assay [17] concerns Echinochloa crus-galli (ECHCG). The assay is described as above. The note with it: 312 h, evaluated after 13 days, read-out: percentage phytotoxicity ECHCG. The essentials: as §6
The test system of assay [18] is Alopecurus myosuroides (ALOMY). Described as above. The note with it: 312 h, evaluated after 13 days, read-out: percentage phytotoxicity ALOMY. A digest of the protocol: as §6

For the compound `CC#Cc1ccc(C2C(=O)C3CCC(C3)C2=O)c(C)c1` (single isomer, unassigned) [Compound A-2], the pest or weed control at 500 g/ha in [1] is 90%; in assay [2], 80%; in assay [3] it was 100%. Moreover, the plant injury at 60 g/ha in assay [4] was determined as 40%. Moreover, the plant injury at 500 g/ha in assay [5] came out at 60%; in assay [6], 40%; in assay [7] it was 0%. Also, the pest or weed control at 250 g/ha was determined as 70% in assay [8]; 0% in assay [9]; 100% in [10]; 90% in [11]; 100% in assay [15]; 0% in [16]. The figures for the pest or weed control at 250 g/ha in [17] and in assay [18] were 100% and 90%, respectively. For the same compound, the values for the pest or weed control at 60 g/ha in assay [12], in assay [13] and in assay [14] were 100%, 80% and 100%, respectively.
For the compound `CC#Cc1ccc(C2C(=O)C(C)(C)OC(C)(C)C2=O)c(C)c1` [Compound A-1], the pest or weed control at 500 g/ha in assay [1] was found to be 50%; in assay [2] it was 60%; in assay [3], 100%. In addition, in assay [4], the plant injury at 60 g/ha is 70%. The plant injury at 500 g/ha was 40% in [5], 60% in assay [6] and 10% in [7]. The pest or weed control at 250 g/ha was 90% in assay [8]; 0% in [9]; 80% in [10]; 90% in assay [11]; 70% in assay [15]; 10% in assay [16]. Further, the figures for the pest or weed control at 250 g/ha in assay [17] and in assay [18] were 100% and 90%, respectively. In addition, the pest or weed control at 60 g/ha in [12] is 70%; in assay [13], 0%; in [14], 80%.
In assay [4] (30 g/ha application rate), `Cc1cc(C#CCl)cc(C)c1C1C(=O)CC(CC2CCOCC2)CC1=O` (stereo not shown) [Compound A-8] returned a plant injury at 30 g/ha of 50%. In addition, the pest or weed control at 250 g/ha was 90% in assay [8]; 90% in assay [9]; 100% in assay [10]; 90% in assay [11]; 90% in assay [15]; 40% in assay [16]. The pest or weed control at 250 g/ha in [17] was determined as 100%; in [18] it was 80%. In addition, the pest or weed control at 30 g/ha in assay [12] (30 g/ha application rate) is 90%; in assay [13] (30 g/ha application rate) it was 90%; in assay [14] (30 g/ha application rate) it was 100%.
With `CC#Cc1cc(Cl)c(C2C(=O)CC3(CCOCC3)CC2=O)c(OC)c1` [Compound A-20, 9-(2-Chloro-6-methoxy-4-prop-1-ynyl-phenyl)-3-oxa-spiro[5.5]undecane-8,10-dione], the pest or weed control at 250 g/ha in [8] was found to be 100%; in [9], 90%; in assay [10], 100%; in [11], 100%; in assay [15], 100%; in assay [16], 80%. Further, the pest or weed control at 250 g/ha in assay [17] and in assay [18] was 100% in each case. Moreover, the pest or weed control at 8 g/ha stood at 90% in assay [15] (8 g/ha), 10% in assay [16] (8 g/ha), 100% in [17] (8 g/ha) and 90% in assay [18] (8 g/ha). Further, the pest or weed control at 30 g/ha is 100% in assay [15], 80% in assay [16], 100% in [17] and 100% in assay [18].
For the compound `CC#Cc1cc(C)c(C2C(=O)CC(CCSC)CC2=O)c(C)c1` (stereo not shown) [Compound A-21, 2-(2,6-Dimethyl-4-prop-1-ynyl-phenyl)-5-(2-methylsulfanyl-ethyl)cyclohexane-1,3-dione], the pest or weed control at 250 g/ha in assay [8] was 100%; in assay [9] it was 90%; in assay [10], 100%; in assay [11], 100%; in [15], 100%; in assay [16], 20%. The pest or weed control at 250 g/ha in assay [17] came to 100%; in [18], 90%. Moreover, the pest or weed control at 30 g/ha in assay [15] was 70%; in assay [16], 80%; in assay [17] it was 80%; in assay [18] it was 50%.
